Laboratory results as given in US12528802B2, “Heterocyclic compound” (Takeda Pharmaceutical Company Limited, priority 2019, dated 2026).

Molecular target: T1, glucosylceramide synthase (Homo sapiens, UniProt Q16739)
T1 construct: made in house; host or cells: Expi293F cells (transient expression, pcDNA3.3-TOPO vector); microsome fraction used as enzyme source
T1 sequence (Q16739 1-394): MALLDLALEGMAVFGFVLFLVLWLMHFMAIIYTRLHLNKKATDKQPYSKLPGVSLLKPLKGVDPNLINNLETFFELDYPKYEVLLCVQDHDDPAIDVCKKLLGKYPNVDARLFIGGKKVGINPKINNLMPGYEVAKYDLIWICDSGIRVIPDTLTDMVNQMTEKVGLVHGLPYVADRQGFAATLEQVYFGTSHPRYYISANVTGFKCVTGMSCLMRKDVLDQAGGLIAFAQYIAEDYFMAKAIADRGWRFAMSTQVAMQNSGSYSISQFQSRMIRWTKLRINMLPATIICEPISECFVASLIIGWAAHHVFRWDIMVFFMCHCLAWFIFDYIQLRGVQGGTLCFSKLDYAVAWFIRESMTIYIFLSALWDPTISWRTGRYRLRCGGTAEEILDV
Test: Glucosylceramide synthase (GCS) enzyme assay, microsome fraction, C8 glucosylceramide quantified by Rapidfire MS/MS
Type: biochemical
Conditions: test compound 10 μM; 1.7 μM UDP-glucose, 3 μM C8 ceramide; room temperature 60 min; read-out: GCS enzyme inhibitory rate at 10 μM (%) (% of control)
Summary of the method: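 Test compound, 10 μM final, was run against human GCS from transfected Expi293F microsome fractions, using substrate solution of 6 μM C8 ceramide (in DOPC liposomes) plus 3.4 μM UDP-glucose, pH 7.5 Tris buffer, 60 min, room temperature. Product C8 glucosylceramide measured by Rapidfire MS/MS against an internal standard, % inhibition referenced to no-enzyme and DMSO wells.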

inhibition at 10 µM [%] | SMILES
100 | Cc1cc2c(c(-c3ccccc3OCC(F)(F)F)n1)CN(c1ccc(OCC(C)(C)O)cc1)C2=O [Example 364, 2-[4-(2-hydroxy-2-methylpropoxy)phenyl]-6-methyl-4-[2-(2,2,2-trifluoroethoxy)phenyl]-2,3-dihydro-1H-pyrrolo [3,4-c]pyridin-1-one]
100 | Cc1cc2c(c(-c3ccccc3OCC(F)F)n1)CN(c1ccc(OCC(C)(C)O)cc1)C2=O [Example 365, 4-[2-(2,2-difluoroethoxy)phenyl]-2-[4-(2-hydroxy-2-methylpropoxy)phenyl]-6-methyl-2,3-dihydro-1H-pyrrolo[3,4-c]pyridin-1-one]
99 | CC(C)(O)COc1ccc(N2Cc3c(ccnc3-c3ccccc3OCC(F)F)C2=O)cc1 [Example 366, 4-[2-(2,2-difluoroethoxy)phenyl]-2-[4-(2-hydroxy-2-methylpropoxy)phenyl]-2,3-dihydro-1H-pyrrolo [3,4-c]pyridin-1-one]
99 | Cc1cc2c(c(-c3ccccc3OCC(F)(F)F)n1)CN(c1ccc(OCC(C)(C)O)nc1)C2=O [Example 367, 2-[6-(2-hydroxy-2-methylpropoxy)pyridin-3-yl]-6-methyl-4-[2-(2,2,2-trifluoroethoxy)phenyl]-2,3-dihydro-1H-pyrrolo[3,4-c] pyridin-1-one]
100 | CC(C)(O)c1ccc(N2Cc3c(cn(C(F)F)c(=O)c3-c3ccccc3OCC(F)(F)F)C2=O)cc1 [Example 368, 5-(difluoromethyl)-2-[4-(2-hydroxypropan-2-yl)phenyl]-7-[2-(2,2,2-trifluoroethoxy)phenyl]-1H-pyrrolo[3,4-c]pyridine-3,6(2H,5H)-dione]
100 | CC(C)(O)COc1ccc(N2Cc3c(cn(C(F)F)c(=O)c3-c3ccccc3OCC(F)(F)F)C2=O)cc1 [Example 369, 5-(difluoromethyl)-2-[4-(2-hydroxy-2-methylpropoxy)phenyl]-7-[2-(2,2,2-trifluoroethoxy)phenyl]-1H-pyrrolo[3,4-c]pyridine-3,6(2H,5H)-dione]
100 | CC(C)(O)c1ccc(N2Cc3c(cn(C4CC4)c(=O)c3-c3ccccc3OCC(F)(F)F)C2=O)cc1 [Example 371, 5-cyclopropyl-2-[4-(2-hydroxypropan-2-yl)phenyl]-7-[2-(2,2,2-trifluoroethoxy)phenyl]-1H-pyrrolo[3,4-c]pyridine-3,6(2H,5H)-dione]
100 | CC(C)(O)COc1ccc(N2Cc3c(cn(C4CC4)c(=O)c3-c3ccccc3OCC(F)(F)F)C2=O)cc1 [Example 372, 5-cyclopropyl-2-[4-(2-hydroxy-2-methylpropoxy)phenyl]-7-[2-(2,2,2-trifluoroethoxy)phenyl]-1H-pyrrolo[3,4-c]pyridine-3,6(2H,5H)-dione]
100 | Cc1cc2c(c(-c3ccccc3OCC(F)(F)F)n1)CN(c1ccc(OCC3(O)CC3)cc1)C2=O [Example 375, 2-{4-[(1-hydroxycyclopropyl)methoxy]phenyl}-6-methyl-4-[2-(2,2,2-trifluoroethoxy)phenyl]-2,3-dihydro-1H-pyrrolo[3,4-c]pyridin-1-one]
100 | CC(C)n1cc2c(c(-c3ccccc3OCC(F)(F)F)c1=O)CN(c1ccc(C(C)(C)O)cc1)C2=O [Example 376, 2-[4-(2-hydroxypropan-2-yl)phenyl]-5-(propan-2-yl)-7-[2-(2,2,2-trifluoroethoxy)phenyl]-1H-pyrrolo[3,4-c]pyridine-3,6(2H,5H)-dione]
100 | CC(C)n1cc2c(c(-c3ccccc3OCC(F)(F)F)c1=O)CN(c1ccc(OCC(C)(C)O)cc1)C2=O [Example 377, 2-[4-(2-hydroxy-2-methylpropoxy)phenyl]-5-(propan-2-yl)-7-[2-(2,2,2-trifluoroethoxy)phenyl]-1H-pyrrolo[3,4-c]pyridine-3,6(2H,5H)-dione]
101 | CC(C)(O)c1ccc(N2Cc3c(cc(C4CCOCC4)nc3-c3ccccc3OCC(F)(F)F)C2=O)cc1 [Example 379, 2-[4-(2-hydroxypropan-2-yl)phenyl]-6-(oxan-4-yl)-4-[2-(2,2,2-trifluoroethoxy)phenyl]-2,3-dihydro-1H-pyrrolo[3,4-c]pyridin-1-one]
95 | O=C1c2cc(C3CCCCC3)nc(-c3ccc(F)cc3OCC(F)(F)F)c2CN1c1ccc(F)cc1 [Example 381, 6-cyclohexyl-2-(4-fluorophenyl)-4-[4-fluoro-2-(2,2,2-trifluoroethoxy)phenyl]-2,3-dihydro-1H-pyrrolo [3,4-c]pyridin-1-one]

Second part, the compound before the results:

SMILES | inhibition at 10 µM [%]
Cc1cc2c(c(-c3ccccc3OCC(F)(F)F)n1)CN(c1ccc(C3(O)CCOCC3)cc1)C2=O [Example 348, 2-[4-(4-hydroxyoxan-4-yl)phenyl]-6-methyl-4-[2-(2,2,2-trifluoroethoxy)phenyl]-2,3-dihydro-1H-pyrrolo[3,4-c] pyridin-1-one] | 100
C#CCCC1(CCOc2ccc(N3Cc4c(ccnc4-c4ccccc4OCC(F)(F)F)C3=O)cc2)N=N1 [Example 349, 2-(4-{2-[3-(but-3-yn-1-yl)-3H-diaziren-3-yl]ethoxy}phenyl)-4-[2-(2,2,2-trifluoroethoxy)phenyl]-2,3-dihydro-1H-pyrrolo[3,4-c]pyridin-1-one] | 100
Cn1cc2c(c(-c3ccccc3OCC(F)(F)F)c1=O)CN(c1ccc(OCC(C)(C)O)cc1)C2=O [Example 350, 2-[4-(2-hydroxy-2-methylpropoxy)phenyl]-5-methyl-7-[2-(2,2,2-trifluoroethoxy)phenyl]-1H-pyrrolo[3,4-c]pyridine-3,6(2H,5H)-dione] | 100
Cc1cc2c(c(-c3ccc(F)cc3OCC(F)(F)F)n1)CN(c1ccc(C(C)(C)O)cc1)C2=O [Example 351, 4-[4-fluoro-2-(2,2,2-trifluoroethoxy)phenyl]-2-[4-(2-hydroxypropan-2-yl)phenyl]-6-methyl-2,3-dihydro-1H-pyrrolo[3,4-c]pyridin-1-one] | 100
Cc1cc2c(c(-c3ccc(F)cc3OCC(F)(F)F)n1)CN(c1ccc(C3(O)CCOCC3)cc1)C2=O [Example 352, 4-[4-fluoro-2-(2,2,2-trifluoroethoxy)phenyl]-2-[4-(4-hydroxyoxan-4-yl)phenyl]-6-methyl-2,3-dihydro-1H-pyrrolo[3,4-c] pyridin-1-one] | 100
Cc1cc2c(c(-c3c(F)cccc3OCC(F)(F)F)n1)CN(c1ccc(C(C)(C)O)cc1)C2=O [Example 353, 4-[2-fluoro-6-(2,2,2-trifluoroethoxy)phenyl]-2-[4-(2-hydroxypropan-2-yl)phenyl]-6-methyl-2,3-dihydro-1H-pyrrolo[3,4-c]pyridin-1-one] | 100
CC(C)(O)c1cc2c(c(-c3ccccc3OCC(F)F)n1)CN(c1ccc(OCC(F)(F)F)cc1)C2=O [Example 354, 4-[2-(2,2-difluoroethoxy)phenyl]-6-(2-hydroxypropan-2-yl)-2-[4-(2,2,2-trifluoroethoxy)phenyl]-2,3-dihydro-1H-pyrrolo[3,4-c]pyridin-1-one] | 100
CC(C)(O)c1cc2c(c(-c3ccccc3OCC(F)F)n1)CN(c1ccc(OC(F)F)cc1)C2=O [Example 355, 4-[2-(2,2-difluoroethoxy)phenyl]-2-[4-(difluoromethoxy)phenyl]-6-(2-hydroxypropan-2-yl)-2,3-dihydro-1H-pyrrolo[3,4-c]pyridin-1-one] | 100
CC(C)(O)c1cc2c(c(-c3ccccc3OCC(F)F)n1)CN(c1ccc(F)cc1)C2=O [Example 356, 4-[2-(2,2-difluoroethoxy)phenyl]-2-(4-fluorophenyl)-6-(2-hydroxypropan-2-yl)-2,3-dihydro-1H-pyrrolo [3,4-c]pyridin-1-one] | 99
CC(C)(O)c1cc2c(c(-c3ccccc3OCC(F)F)n1)CN(c1ccc(C(F)F)cc1)C2=O [Example 357, 4-[2-(2,2-difluoroethoxy)phenyl]-2-[4-(difluoromethyl)phenyl]-6-(2-hydroxypropan-2-yl)-2,3-dihydro-1H-pyrrolo[3,4-c] pyridin-1-one] | 100
CC(C)(O)c1cc2c(c(-c3ccccc3OCC(F)F)n1)CN(c1ccc(C(C)(C)C#N)cc1)C2=O [Example 360, 2-(4-{4-[2-(2,2-difluoroethoxy)phenyl]-6-(2-hydroxypropan-2-yl)-1-oxo-1,3-dihydro-2H-pyrrolo [3,4-c]pyridin-2-yl}phenyl)-2-methylpropanenitrile] | 100
CC(C)(C#N)COc1ccc(N2Cc3c(cc(C(C)(C)O)nc3-c3ccccc3OCC(F)F)C2=O)cc1 [Example 362, 3-(4-{4-[2-(2,2-difluoroethoxy)phenyl]-6-(2-hydroxypropan-2-yl)-1-oxo-1,3-dihydro-2H-pyrrolo[3,4-c]pyridin-2-yl}phenoxy)-2,2-dimethylpropanenitrile] | 100
CC(C)(O)c1ccc(N2Cc3c(cc(C(C)(C)O)nc3-c3ccccc3OCC(F)F)C2=O)cn1 [Example 363, 4-[2-(2,2-difluoroethoxy)phenyl]-6-(2-hydroxypropan-2-yl)-2-[6-(2-hydroxypropan-2-yl)pyridin-3-yl]-2,3-dihydro-1H-pyrrolo [3,4-c]pyridin-1-one] | 97
